The results in this text go back to ChEMBL document CHEMBL1201862, “PubChem BioAssay data set” (2004).

“And” between values parts separate entries of the source, which are not always exact repeats. Identical values can stand only once.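 The compound was tested at five concentrations on cells cultured in 96-well plates, with a 48-hour exposure period. GI50 is the concentration that inhibits growth by half.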 The source made the active and inactive calls. No stated cut-off is given here; in the data, active = GI50 up to about 1.1 µM and inactive = higher. Where only a bound is given, the exact number is not on record here.

Test systems include K562; Hs-578T; SNB-75; Malme-3M; SW-620; HL-60; CCRF-CEM; COLO 205; DU-145; OVCAR-5; LOX IMVI; OVCAR-4; SR; SK-OV-3; SF-539; RXF 393; UACC-62; 786-0; SF-268; MOLT-4.
Holding throughout (experiment): NCI tumour cell line growth inhibition, 48 h

Regarding `CCC1NC(=O)C(NC(=O)c2ncccc2O)C(C)OC(=O)C(c2ccccc2)NC(=O)C2CC(=O)CCN2C(=O)C(Cc2ccccc2)N(C)C(=O)C2CCCN2C1=O` (configuration not stated), the GI50 in the experiment with K562 is > 100 µM (inactive); in the experiment on Hs-578T it was > 100 µM (inactive); in the experiment on SNB-75 it was > 100 µM (inactive); in the experiment on Malme-3M it was > 100 µM (inactive); with SW-620, > 100 µM (inactive); with HL-60, 52.6 µM (inactive). For the same compound, the GI50 in the experiment with CCRF-CEM was 41.5 µM (inactive); in the experiment on COLO 205, > 100 µM (inactive); in the experiment on DU-145, > 100 µM (inactive); in the experiment with OVCAR-5, > 100 µM (inactive); in the experiment on LOX IMVI, > 100 µM (inactive); in the experiment on OVCAR-4, 57.1 µM (inactive). In addition, the GI50 in the experiment with SR is 37.4 µM (inactive); in the experiment on SK-OV-3 it was > 100 µM (inactive); in the experiment with SF-539, > 100 µM (inactive); with RXF 393 it was > 100 µM (inactive); with UACC-62 it was > 100 µM (inactive); in the experiment on 786-0, > 100 µM (inactive). Further, in the experiment with SF-268, the GI50 is > 100 µM (inactive).

Take `O=C1CCC(CCc2nc3ccccc3[nH]2)(c2ccccc2)C(=O)N1` (configuration not stated): the GI50 in the experiment on K562 was 64 µM (inactive); in the experiment with Hs-578T it was 29.7 µM (inactive); in the experiment on SNB-75, 86.1 µM (inactive); in the experiment with Malme-3M, > 100 µM (inactive); in the experiment with SW-620 it was > 100 µM (inactive); in the experiment with HL-60, > 100 µM (inactive). For the same compound, the GI50 in the experiment on CCRF-CEM, in the experiment on COLO 205, in the experiment with DU-145, in the experiment on OVCAR-5, in the experiment on LOX IMVI and in the experiment on OVCAR-4 was > 100 µM (inactive) in each case. Further, the GI50 in the experiment with SR, in the experiment on SK-OV-3, in the experiment on SF-539, in the experiment on RXF 393, in the experiment on UACC-62 and in the experiment on 786-0 was > 100 µM (inactive) each time. In addition, the GI50 in the experiment with SF-268 is > 100 µM (inactive).

Consider `CSc1ccc(NC(=S)NN(C)C)cc1`, for which the GI50 in the experiment on K562, in the experiment with Hs-578T, with SNB-75, in the experiment on MOLT-4, in the experiment with Malme-3M and in the experiment with SW-620 was > 10 µM (inactive) in each case. Further, the GI50 in the experiment on HL-60, in the experiment with CCRF-CEM, in the experiment with COLO 205, in the experiment on DU-145, with LOX IMVI and in the experiment on OVCAR-4 was > 10 µM (inactive) each time. Also, the GI50 with SR, in the experiment with SK-OV-3, with SF-539, in the experiment with RXF 393, with UACC-62 and in the experiment with 786-0 was > 10 µM (inactive) each time. Further, the GI50 with SF-268 is > 10 µM (inactive).

For the compound `Cc1ccc(CC(Cc2ccc(C)cc2C(=O)O)C(=O)O)cc1` (configuration not stated), the GI50 in the experiment with Hs-578T, in the experiment with SNB-75, in the experiment on MOLT-4, in the experiment on Malme-3M, in the experiment on SW-620 and in the experiment with HL-60 was > 100 µM (inactive) throughout. In addition, the GI50 in the experiment on CCRF-CEM, in the experiment with COLO 205, with DU-145, with OVCAR-5, in the experiment on LOX IMVI and in the experiment with OVCAR-4 was > 100 µM (inactive) in each case. Besides, the GI50 in the experiment with SR is > 100 µM (inactive); in the experiment with SK-OV-3, > 100 µM (inactive); with SF-539, > 100 µM (inactive); with RXF 393, > 100 µM (inactive); in the experiment with UACC-62 it was 43 µM (inactive); in the experiment with 786-0, > 100 µM (inactive). In the experiment on SF-268, the GI50 was > 100 µM (inactive).

As to `O=[N+]([O-])c1ccc(-c2ccc([C@H]3CC(c4cc(F)c(Cl)cc4Cl)=NN3)o2)cc1`, the GI50 in the experiment on K562 was 22.9 µM (inactive); in the experiment with Hs-578T, > 100 µM (inactive); with SNB-75 it was 15.1 µM (inactive); in the experiment with MOLT-4 it was 1.95 µM (inactive); in the experiment on Malme-3M it was 19.2 µM (inactive); with SW-620 it was 23.6 µM (inactive). Moreover, the GI50 was 1.06 µM (active) in the experiment with HL-60; 1.06 µM (active) with CCRF-CEM; 26.9 µM (inactive) with DU-145; > 100 µM (inactive) with OVCAR-5; 3.63 µM (inactive) with LOX IMVI; 40.2 µM (inactive) with OVCAR-4. Further, the GI50 with SR was 0.621 µM (active); in the experiment on SK-OV-3, 39.2 µM (inactive); in the experiment on SF-539 it was 5.38 µM (inactive); with RXF 393, 39.2 µM (inactive); in the experiment on UACC-62, 21.3 µM (inactive); in the experiment on 786-0, 23.7 µM (inactive). Moreover, in the experiment with SF-268, the GI50 is 19.1 µM (inactive).

For the compound `CC(=O)OC1COC(n2c(N)c(C#N)c(-c3ccccc3)c(C#N)c2=S)C(OC(C)=O)C1OC(C)=O` (configuration not stated), the GI50 is 45.3 µM (inactive) and 37.4 µM (inactive) in the experiment with Hs-578T; 43.4 µM (inactive) and 24.4 µM (inactive) in the experiment with SNB-75; 24.6 µM (inactive) and 24.3 µM (inactive) in the experiment with MOLT-4; 34.3 µM (inactive) and 33.4 µM (inactive) in the experiment on Malme-3M; 56.2 µM (inactive) and 64.3 µM (inactive) in the experiment on SW-620; 23.2 µM (inactive) in the experiment on HL-60. Also, the GI50 with CCRF-CEM is 26.1 µM (inactive) and 35.2 µM (inactive); with COLO 205, 31.6 µM (inactive) and 31.3 µM (inactive); in the experiment on DU-145 it was 47.9 µM (inactive) and 38.4 µM (inactive); in the experiment on OVCAR-5 it was 46.5 µM (inactive) and 89.1 µM (inactive); in the experiment with LOX IMVI, 25.2 µM (inactive) and 27.6 µM (inactive); with OVCAR-4, 41 µM (inactive) and 38.7 µM (inactive). For the same compound, the GI50 in the experiment on SR was 19.6 µM (inactive) and 22.2 µM (inactive); with SK-OV-3, 38.3 µM (inactive) and 45 µM (inactive); in the experiment on SF-539 it was 40.2 µM (inactive) and 32.4 µM (inactive); in the experiment with RXF 393, 34.4 µM (inactive) and 33 µM (inactive); with UACC-62 it was 33 µM (inactive) and 35.1 µM (inactive); in the experiment with 786-0, 36.9 µM (inactive) and 39.3 µM (inactive). The GI50 in the experiment on SF-268 was 36 µM (inactive).

As for `O=C(O)c1ccccc1.[Ag]`, the GI50 is 3.2 µM (inactive) in the experiment with K562; 28.2 µM (inactive) in the experiment with Hs-578T; 3.36 µM (inactive) in the experiment with SNB-75; 2.55 µM (inactive) in the experiment on MOLT-4; 1.7 µM (inactive) in the experiment with Malme-3M; 3.98 µM (inactive) in the experiment with HL-60. Besides, the GI50 in the experiment with CCRF-CEM was 1.99 µM (inactive); in the experiment with COLO 205 it was 1.87 µM (inactive); with DU-145, 17.5 µM (inactive); in the experiment on OVCAR-5, 22.9 µM (inactive); in the experiment with LOX IMVI, 11.1 µM (inactive); with OVCAR-4 it was 14.7 µM (inactive). Besides, the GI50 with SR was 5.12 µM (inactive); in the experiment with SK-OV-3, 17.4 µM (inactive); in the experiment with SF-539, 21.3 µM (inactive); in the experiment on RXF 393, 18.2 µM (inactive); in the experiment with UACC-62, 18.1 µM (inactive); in the experiment on 786-0 it was 17.3 µM (inactive). Besides, in the experiment on SF-268, the GI50 is 21.8 µM (inactive).

For the compound `CC1=C(/C=C/C(C)=C/C=C/C(C)=C/C(=O)OCC2OC(n3cc(F)c(=O)[nH]c3=O)CC2OC(=O)/C=C(C)/C=C/C=C(C)/C=C/C2=C(C)CCCC2(C)C)C(C)(C)CCC1` (configuration not stated), the GI50 in the experiment on K562 is 4.66 µM (inactive); in the experiment with Hs-578T, 9.25 µM (inactive); with SNB-75, 10.4 µM (inactive); in the experiment on MOLT-4, 1.07 µM (active); in the experiment with Malme-3M, 7.43 µM (inactive); with SW-620, 12.1 µM (inactive). In addition, the GI50 was 1.14 µM (inactive) in the experiment on HL-60; 0.684 µM (active) with CCRF-CEM; 18.7 µM (inactive) with COLO 205; 1.27 µM (inactive) with DU-145; > 45.3 µM (inactive) in the experiment on OVCAR-5; 3.48 µM (inactive) with LOX IMVI. The GI50 in the experiment on OVCAR-4 was > 32.1 µM (inactive); in the experiment on SR it was 0.794 µM (active); with SK-OV-3, 30.5 µM (inactive); in the experiment on SF-539, 0.314 µM (active); in the experiment on RXF 393, 22.3 µM (inactive); with UACC-62, 0.83 µM (active). Also, the figures for the GI50 with 786-0 and in the experiment with SF-268 were 1.15 µM (inactive) and 0.618 µM (active), respectively.

As to `Cc1ccc2c(c1)nc1n2C(N)=Nc2ccccc2S1`, the GI50 in the experiment with K562 was 5.79 µM (inactive); in the experiment with Hs-578T, > 73.5 µM (inactive); with SNB-75, > 54.6 µM (inactive); in the experiment with MOLT-4 it was 4.66 µM (inactive); in the experiment on Malme-3M, > 100 µM (inactive); in the experiment with SW-620, 40 µM (inactive). Besides, the GI50 with HL-60 was 2.67 µM (inactive); in the experiment with CCRF-CEM, 2.65 µM (inactive); in the experiment with COLO 205, 14.8 µM (inactive); in the experiment on DU-145, > 69.8 µM (inactive); with OVCAR-5 it was > 75.7 µM (inactive); in the experiment with LOX IMVI, 3.51 µM (inactive). In addition, the GI50 in the experiment on OVCAR-4 is > 100 µM (inactive); with SR, 4.7 µM (inactive); in the experiment with SK-OV-3 it was > 100 µM (inactive); in the experiment on SF-539, > 95.5 µM (inactive); with RXF 393 it was > 100 µM (inactive); with UACC-62 it was > 60.8 µM (inactive). The GI50 is 52.7 µM (inactive) with 786-0 and 48.1 µM (inactive) in the experiment with SF-268.

As to `O=CNC(Cc1c[nH]cn1)C(=O)O` (configuration not stated), the GI50 in the experiment with K562, in the experiment on Hs-578T, in the experiment with SNB-75, in the experiment with Malme-3M, with SW-620 and in the experiment with HL-60 was > 100 µM (inactive) throughout. Besides, the GI50 with CCRF-CEM, in the experiment on COLO 205, in the experiment on DU-145, in the experiment on OVCAR-5, in the experiment on LOX IMVI and in the experiment on OVCAR-4 was > 100 µM (inactive) throughout. The GI50 in the experiment on SR, with SK-OV-3, with SF-539, in the experiment with RXF 393, in the experiment with UACC-62 and in the experiment with 786-0 was > 100 µM (inactive) each time. The GI50 in the experiment on SF-268 is > 100 µM (inactive).
